These results are taken from ChEMBL document CHEMBL3352476, “Antimicrobial Constituents of the Mature Carpels of Manglietiastrum sinicum” (J Nat Prod, 2014).

The subject of test [1] is Staphylococcus aureus. Briefly: Antimicrobial activity against methicillin-resistant Staphylococcus aureus 92 by 2-fold dilution assay. Type of test: functional.
Test [2] concerns A549. Briefly: Cytotoxicity against human A549 cells by MTT assay. Type of test: functional, cell-based.
The test system of test [3] is Staphylococcus aureus. The experiment in a line: Antimicrobial activity against methicillin-resistant Staphylococcus aureus 98 by 2-fold dilution assay. Type of test: functional.
For test [4], the system named is SW480. The experiment in a line: Cytotoxicity against human SW480 cells by MTT assay. Type of test: functional, cell-based.
Test [5] concerns Platelet. The experiment in a line: Inhibition of ADP-induced platelet aggregation in rabbit platelet rich plasma at 200 ug/ml preincubated for 10 mins before addition of inducer by aggregometry. Type of test: functional. Particulars: Oryctolagus cuniculus.
In test [6] the test system is MCF7. Briefly: Cytotoxicity against human MCF7 cells by MTT assay. Type of test: functional, cell-based.
Test [7] relates to Staphylococcus aureus. The experiment in a line: Antimicrobial activity against methicillin-resistant Staphylococcus aureus 82 by 2-fold dilution assay. Type of test: functional.
A short description of test [8]: Cytotoxicity against human HL60 cells by MTT assay. Type of test: functional, cell-based. Particulars: HL-60.
Test [9] has as its system Staphylococcus aureus. The experiment in a line: Antimicrobial activity against Staphylococcus aureus by 2-fold dilution assay. Type of test: functional.
For test [10], the system named is Platelet. The experiment in a line: Inhibition of arachidonic acid-induced platelet aggregation in rabbit platelet rich plasma at 200 ug/ml preincubated for 10 mins before addition of inducer by aggregometry. Type of test: functional. Particulars: Oryctolagus cuniculus.
A short description of test [11]: Cytotoxicity against human SSMC-7721 cells by MTT assay. Type of test: functional, cell-based.
Test [12] concerns Platelet. The experiment in a line: Inhibition of PAF-induced platelet aggregation in rabbit platelet rich plasma at 200 ug/ml preincubated for 10 mins before addition of inducer by aggregometry. Type of test: functional. To be noted: Oryctolagus cuniculus.
Test [13] relates to Staphylococcus aureus. Briefly: Antimicrobial activity against methicillin-resistant Staphylococcus aureus 331 by 2-fold dilution assay. Type of test: functional.
In test [14] the test system is Staphylococcus aureus. Briefly: Antimicrobial activity against Staphylococcus aureus by agar plate punch assay. Type of test: functional.

Converted amounts (≈) assume the structure as drawn. Counter-ions that a name gives are not always drawn. The source made the active and inactive calls. No cut-off for these calls is given here. Bounds are passed on as bounds.

As for `COc1cc([C@@H]2O[C@H](c3cc(O)c(OC)c(OC)c3)[C@@H](C)[C@@H]2C)ccc1O`, the MIC was determined as 130 µM (≈ 48.7 µg/mL) in test [1]; 130 µM (≈ 48.7 µg/mL) in test [3]; 67 µM (≈ 25.1 µg/mL) in test [7]; 130 µM (≈ 48.7 µg/mL) in [9]; 130 µM (≈ 48.7 µg/mL) in test [13]. Moreover, the IC50 in test [2], in test [4], in test [6], in [8] and in test [11] was greater than 40 µM in each case. Moreover, the inhibition result in test [5], in test [10] and in test [12] was “inactive” each time.

For the compound `COc1cc2c(cc1O)[C@@H]1O[C@H](c3cc4c(c(OC)c3-2)OCO4)[C@H](C)[C@@H]1C`, the MIC in [1] was determined as 68 µM (≈ 25.2 µg/mL); in test [3], 34 µM (≈ 12.6 µg/mL); in [7], 140 µM (≈ 51.9 µg/mL); in [9] it was 68 µM (≈ 25.2 µg/mL); in [13], 140 µM (≈ 51.9 µg/mL). Further, the IC50 was greater than 40 µM in test [2]; greater than 40 µM in test [4]; greater than 40 µM in test [6]; 17 µM in test [8]; 38.2 µM in test [11]. Besides, the inhibition result in test [5], in test [10] and in [12] was “inactive” in each case.

Take `COc1cc([C@H]2O[C@@H](c3ccc4c(c3)OCO4)[C@H](C)[C@@H]2C)cc(O)c1OC`: the MIC in [1] was 67 µM (≈ 25 µg/mL); in test [3] it was 34 µM (≈ 12.7 µg/mL); in [7] it was 67 µM (≈ 25 µg/mL); in [9], 67 µM (≈ 25 µg/mL); in test [13], 130 µM (≈ 48.4 µg/mL). Moreover, the IC50 in [2] was 27.4 µM; in test [4] it was 19.1 µM; in test [6], 14 µM; in test [8] it was 39.8 µM; in [11], greater than 40 µM. For the same compound, the inhibition result in test [5], in test [10] and in test [12] was “inactive” each time.

For the compound `COc1cc(C(=O)O[C@@H](c2cc(O)c(OC)c(OC)c2)[C@H](C)C(C)=O)cc(O)c1OC`, the IC50 in test [2], in test [4], in [6], in test [8] and in [11] was greater than 40 µM each time. Further, the inhibition entry in test [5], in test [10] and in [12] was “inactive” throughout. In addition, the “diameter of the inhibition zone (DIZ)” value in test [14] is less than 10 mm.

`COC1=CC2(C=C(OC)C1=O)C[C@@H](C)[C@H](C)Cc1cc3c(c(OC)c12)OCO3`: the MIC in test [1] came to 65 µM (≈ 25.1 µg/mL); in test [3] it was 16 µM (≈ 6.18 µg/mL); in test [7], 65 µM (≈ 25.1 µg/mL); in test [9], 130 µM (≈ 50.2 µg/mL); in [13], 32 µM (≈ 12.4 µg/mL). Also, the IC50 in [2], in test [4], in [6], in test [8] and in [11] was greater than 40 µM each time. Also, the inhibition result in [5], in test [10] and in test [12] was “inactive” each time.

Consider `COc1cc(C(=O)O[C@@H](c2cc(OC)c(OC)c(OC)c2)[C@H](C)C(C)=O)ccc1O`, for which the IC50 in test [2], in [4], in test [6], in test [8] and in test [11] was greater than 40 µM throughout. The inhibition entry in test [5], in test [10] and in test [12] was “inactive” in each case. For the same compound, the “diameter of the inhibition zone (DIZ)” value in test [14] is less than 10 mm.

With `COc1cc([C@@H]2O[C@H](c3ccc4c(c3)OCO4)[C@H](C)[C@H]2C)cc(O)c1OC`, the MIC in [1] is 67 µM (≈ 25 µg/mL); in [3] it was 67 µM (≈ 25 µg/mL); in test [7], 67 µM (≈ 25 µg/mL); in test [9], 67 µM (≈ 25 µg/mL); in test [13] it was 34 µM (≈ 12.7 µg/mL). Besides, the half-maximal inhibitory concentration (IC50) in test [2], in test [4], in test [6], in test [8] and in test [11] was greater than 40 µM throughout. Moreover, the inhibition result in test [5], in [10] and in [12] was “inactive” throughout.

In the case of `CN[C@H](CC(C)C)C(=O)N[C@H]1C(=O)N[C@@H](CC(N)=O)C(=O)N[C@H]2C(=O)N[C@H]3C(=O)N[C@H](C(=O)N[C@H](C(=O)O)c4cc(O)cc(O)c4-c4cc3ccc4O)[C@H](O)c3ccc(c(Cl)c3)Oc3cc2cc(c3O[C@@H]2O[C@H](CO)[C@@H](O)[C@H](O)[C@H]2O[C@H]2C[C@](C)(N)[C@H](O)[C@H](C)O2)Oc2ccc(cc2Cl)[C@H]1O` [VANCOMYCIN HYDROCHLORIDE], the MIC in test [1] came to 0.54 µM; in test [3], 0.54 µM; in test [7], 0.54 µM; in [9], 1.1 µM; in test [13], 0.54 µM.
